Experimental data: patent publication US20260226068A1, “IMIDAZOTRIAZINE IL-17A MODULATORS AND USES THEREOF” (DICE ALPHA, INC., priority 2023, published 2026)

Columns and labels:
[1] = target: T1, IL-17A/F (Homo sapiens, UniProt Q16552+Q96PD4); assay: IL-17A/F HEK-Blue cell assay (SEAP reporter); type: cell-based; conditions: HEK-Blue IL-17A reporter cells, IL17A/F 5 ng/mL, 20 hours, SEAP read at A630; read-out: HEK-Blue IL17AF (IC50 for IL-17A/F inhibition)
T1 construct: purchased R&D Systems
T1 sequence (Q16552 24-155): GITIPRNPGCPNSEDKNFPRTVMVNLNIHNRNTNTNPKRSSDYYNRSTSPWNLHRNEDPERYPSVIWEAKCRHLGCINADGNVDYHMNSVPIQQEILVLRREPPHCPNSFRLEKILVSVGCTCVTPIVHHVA
T1 sequence (Q96PD4 31-163): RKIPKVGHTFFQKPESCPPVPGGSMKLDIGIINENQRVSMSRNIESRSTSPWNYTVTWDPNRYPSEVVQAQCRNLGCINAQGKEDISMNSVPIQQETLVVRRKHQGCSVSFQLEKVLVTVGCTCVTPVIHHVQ

[2] = target: T2, IL-17A/A (Homo sapiens, UniProt Q16552); assay: IL-17A/A HEK-Blue cell assay (SEAP reporter); type: cell-based; conditions: HEK-Blue IL-17A reporter cells, IL17A/A 5 ng/mL, 20 hours, SEAP read at A630; read-out: HEK-Blue IL17AA (IC50 for IL-17A/A inhibition)
T2 construct: purchased Genscript Z03228
T2 sequence (Q16552 24-155): T1 sequence (Q16552 24-155)

Row | IC50 [1] [nM] | IC50 [2] [nM] | SMILES
1 | < 100 | < 100 | CCn1nccc1C(=O)N[C@H](c1cn2nc(C[C@H]3C[C@@H](C(F)(F)F)CNC3=O)c(C3CCOCC3)nc2n1)[C@H]1CCCC(F)(F)C1 [Compound 66, N—((S)—((S)-3,3-difluorocyclohexyl)(2-(((3R,5R)-2-oxo-5-(trifluoromethyl)piperidin-3-yl)methyl)-3-(tetrahydro-2H-pyran-4-yl)imidazo[1,2-b][1,2,4]triazin-6-yl)methyl)-1-ethyl-11H-pyrazole-5-carboxamide]
2 | < 100 | < 100 | CCn1nccc1C(=O)N[C@H](c1cn2nc(C[C@H]3C[C@@H](C(F)(F)F)CNC3=O)c(C3CCOCC3)nc2n1)[C@@H]1CCCC(F)(F)C1 [Compound 67, N—((S)—((R)-3,3-difluorocyclohexyl)(2-(((3R,5R)-2-oxo-5-(trifluoromethyl)piperidin-3-yl)methyl)-3-(tetrahydro-2H-pyran-4-yl)imidazo[1,2-b][1,2,4]triazin-6-yl)methyl)-1-ethyl-1H-pyrazole-5-carboxamide]
3 | < 100 | < 100 | CCn1nccc1C(=O)N[C@H](c1cn2nc(C[C@H]3C[C@@H](C(F)(F)F)CNC3=O)c(C3CCOCC3)nc2n1)[C@H]1CC[C@H](C)CC1 [Compound 78, 1-ethyl-N-((1S)-((1r,4S)-4-methylcyclohexyl)(2-(((3R,5R)-2-oxo-5-(trifluoromethyl)piperidin-3-yl)methyl)-3-(tetrahydro-2H-pyran-4-yl)imidazo[1,2-b][1,2,4]triazin-6-yl)methyl)-1H-pyrazole-5-carboxamide]
4 | 100 to 1000 | < 100 | CCn1nccc1C(=O)N[C@H](c1cn2nc(C[C@H]3C[C@@H](C(F)(F)F)CNC3=O)c(C(C)C)nc2n1)C1CCC(F)(F)CC1 [Compound 87, N-((1S)-(4,4-difluorocyclohexyl)(3-isopropyl-2-(((3R,5R)-2-oxo-5-(trifluoromethyl)piperidin-3-yl)methyl)imidazo[1,2-b][1,2,4]triazin-6-yl)methyl)-1-ethyl-1H-pyrazole-5-carboxamide]
5 | 100 to 1000 | < 100 | CCn1nccc1C(=O)N[C@H](c1cn2nc(C[C@H]3C[C@@H](C(F)(F)F)CNC3=O)c(C(C)C)nc2n1)[C@H]1CC[C@H](C)CC1 [Compound 110, 1-ethyl-N-((1S)-(3-isopropyl-2-(((3R,5R)-2-oxo-5-(trifluoromethyl)piperidin-3-yl)methyl)imidazo[1,2-b][1,2,4]triazin-6-yl)((1r,4S)-4-methylcyclohexyl)methyl)-1H-pyrazole-5-carboxamide]
6 | 100 to 1000 | < 100 | CCn1nccc1C(=O)N[C@H](c1cn2nc(C[C@H]3C[C@@H](C(F)(F)F)CNC3=O)c(N(C)C)nc2n1)[C@H]1CCCC(F)(F)C1 [Compound 117, N—((S)—((S)-3,3-difluorocyclohexyl)(3-(dimethylamino)-2-(((3R,5R)-2-oxo-5-(trifluoromethyl)piperidin-3-yl)methyl)imidazo[1,2-b][1,2,4]triazin-6-yl)methyl)-1-ethyl-1H-pyrazole-5-carboxamide]
7 | 100 to 1000 | < 100 | CCn1nccc1C(=O)N[C@H](c1cn2nc(C[C@H]3C[C@@H](C(F)(F)F)CNC3=O)c(N(C)C)nc2n1)[C@@H]1CCCC(F)(F)C1 [Compound 119, N—((S)—((R)-3,3-difluorocyclohexyl)(3-(dimethylamino)-2-(((3R,5R)-2-oxo-5-(trifluoromethyl)piperidin-3-yl)methyl)imidazo[1,2-b][1,2,4]triazin-6-yl)methyl)-1-ethyl-1H-pyrazole-5-carboxamide]
8 | < 100 | < 100 | CCn1nccc1C(=O)N[C@H](c1cn2nc(C[C@H]3C[C@@H](C(F)(F)F)CNC3=O)c(N3CCO[C@H](C)C3)nc2n1)[C@H]1CCCC(F)(F)C1 [Compound 121, N—((S)—((S)-3,3-difluorocyclohexyl)(3-((R)-2-methylmorpholino)-2-(((3R,5R)-2-oxo-5-(trifluoromethyl)piperidin-3-yl)methyl)imidazo[1,2-b][1,2,4]triazin-6-yl)methyl)-1-ethyl-1H-pyrazole-5-carboxamide]
9 | 100 to 1000 | < 100 | CCn1nccc1C(=O)N[C@H](c1cn2nc(C[C@H]3C[C@@H](C(F)(F)F)CNC3=O)c(N3CCO[C@@H](C)C3)nc2n1)[C@H]1CCCC(F)(F)C1 [Compound 123, N—((S)—((S)-3,3-difluorocyclohexyl)(3-((S)-2-methylmorpholino)-2-(((3R,5R)-2-oxo-5-(trifluoromethyl)piperidin-3-yl)methyl)imidazo[1,2-b][1,2,4]triazin-6-yl)methyl)-1-ethyl-1H-pyrazole-5-carboxamide]
10 | 100 to 1000 | < 100 | CC(C)n1nccc1C(=O)N[C@H](c1cn2nc(C[C@H]3C[C@@H](C(F)(F)F)CNC3=O)c(C3CCOCC3)nc2n1)[C@@H]1CCCC(F)(F)C1 [Compound 127, N-((1S)—((R)-3,3-difluorocyclohexyl)(2-(((3R,5R)-2-oxo-5-(trifluoromethyl)piperidin-3-yl)methyl)-3-(tetrahydro-2H-pyran-4-yl)imidazo[1,2-b][1,2,4]triazin-6-yl)methyl)-1-isopropyl-1H-pyrazole-5-carboxamide]
11 | > 1000 | < 100 | O=C(N[C@H](c1cn2nc(C[C@H]3C[C@@H](C(F)(F)F)CNC3=O)c(C3CCOCC3)nc2n1)C1CCC(F)(F)CC1)c1nonc1C1CC1 [Compound 136, 4-cyclopropyl-N-((1S)-(4,4-difluorocyclohexyl)(2-(((3R,5R)-2-oxo-5-(trifluoromethyl)piperidin-3-yl)methyl)-3-(tetrahydro-2H-pyran-4-yl)imidazo[1,2-b][1,2,4]triazin-6-yl)methyl)-1,2,5-oxadiazole-3-carboxamide]
12 | 100 to 1000 | < 100 | CCn1nccc1C(=O)N[C@H](c1cn2nc(C[C@H]3C[C@@H](C(F)(F)F)CNC3=O)c(C3CCOCC3)nc2n1)C(C1CC1)C1CC1 [Compound 137, N-((1S)-2,2-dicyclopropyl-1-(2-(((3R,5R)-2-oxo-5-(trifluoromethyl)piperidin-3-yl)methyl)-3-(tetrahydro-2H-pyran-4-yl)imidazo[1,2-b][1,2,4]triazin-6-yl)ethyl)-1-ethyl-1H-pyrazole-5-carboxamide]
13 | 100 to 1000 | < 100 | CCn1nccc1C(=O)N[C@H](c1cn2nc(C[C@H]3C[C@H](C(F)(F)F)CNC3=O)c(C3CCOCC3)nc2n1)C1CCC(F)(F)CC1 [Compound 140, N-((1S)-(4,4-difluorocyclohexyl)(2-(((3R,5S)-2-oxo-5-(trifluoromethyl)piperidin-3-yl)methyl)-3-(tetrahydro-2H-pyran-4-yl)imidazo[1,2-b][1,2,4]triazin-6-yl)methyl)-1-ethyl-1H-pyrazole-5-carboxamide]
14 | < 100 | < 100 | CCn1nccc1C(=O)N[C@H](c1cn2nc(C[C@H]3C[C@@H](C(F)(F)F)CNC3=O)c(CC3CCOCC3)nc2n1)C1CCC(F)(F)CC1 [Compound 141, N-((1S)-(4,4-difluorocyclohexyl)(2-(((3R,5R)-2-oxo-5-(trifluoromethyl)piperidin-3-yl)methyl)-3-((tetrahydro-2H-pyran-4-yl)methyl)imidazo[1,2-b][1,2,4]triazin-6-yl)methyl)-1-ethyl-1H-pyrazole-5-carboxamide]
15 | > 1000 | < 100 | CCn1nccc1C(=O)N[C@H](c1cn2nc(C[C@H]3C[C@@H](C(F)(F)F)CNC3=O)c(CN3CCOCC3)nc2n1)C1CCC(F)(F)CC1 [Compound 142, N—((S)-(4,4-difluorocyclohexyl)(3-(morpholinomethyl)-2-(((3R,5R)-2-oxo-5-(trifluoromethyl)piperidin-3-yl)methyl)imidazo[1,2-b][1,2,4]triazin-6-yl)methyl)-1-ethyl-1H-pyrazole-5-carboxamide]
16 | 100 to 1000 | < 100 | CCn1nccc1C(=O)N[C@H](c1cn2nc(C[C@H]3C[C@@H](C(F)(F)F)CNC3=O)c(N(C)C3CC3)nc2n1)C1CCC(F)(F)CC1 [Compound 143, N—((S)-(3-(cyclopropyl(methyl)amino)-2-(((3R,5R)-2-oxo-5-(trifluoromethyl)piperidin-3-yl)methyl)imidazo[1,2-b][1,2,4]triazin-6-yl)(4,4-difluorocyclohexyl)methyl)-1-ethyl-1H-pyrazole-5-carboxamide]
17 | 100 to 1000 | < 100 | CCc1nocc1C(=O)N[C@H](c1cn2nc(C[C@H]3C[C@@H](C(F)(F)F)CNC3=O)c(C3CCOCC3)nc2n1)C1CCC(F)(F)CC1 [Compound 146, N-((1S)-(4,4-difluorocyclohexyl)(2-(((3R,5R)-2-oxo-5-(trifluoromethyl)piperidin-3-yl)methyl)-3-(tetrahydro-2H-pyran-4-yl)imidazo[1,2-b][1,2,4]triazin-6-yl)methyl)-3-ethylisoxazole-4-carboxamide]
18 | 100 to 1000 | < 100 | CC(C)n1nccc1C(=O)N[C@H](c1cn2nc(C[C@H]3C[C@@H](C(F)(F)F)CNC3=O)c(C3CCOCC3)nc2n1)C1CCC(F)(F)CC1 [Compound 147, N-((1S)-(4,4-difluorocyclohexyl)(2-(((3R,5R)-2-oxo-5-(trifluoromethyl)piperidin-3-yl)methyl)-3-(tetrahydro-2H-pyran-4-yl)imidazo[1,2-b][1,2,4]triazin-6-yl)methyl)-1-isopropyl-1H-pyrazole-5-carboxamide]
